Assay results taken from PubChem BioAssay AID256 (DTP/NCI, 2004).
Inconclusive results and toxic doses are left out.

Test system: CD2F1 mice, L1210 leukemia ip, survival T/C
Test: NCI In Vivo Anticancer Drug Screen. Data for tumor model L1210 Leukemia (intraperitoneal) in CD2F1 (CDF1) mice
Conditions: higher = longer survival
Method in brief: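 Ratio T/C, where T is the treated-group value and C the vehicle-dosed control value, from mice implanted with a transplantable tumor.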

[1] = endpoint: mean survival time, dose: 50.0 mg/kg/injection, schedule: Q01DX009 (ip), vehicle: saline
[2] = endpoint: mean survival time, dose: 100.0 mg/kg/injection, schedule: Q01DX009 (ip), vehicle: saline
[3] = endpoint: mean survival time, dose: 100.0 mg/kg/injection, schedule: Q04DX003 (ip), vehicle: saline with Tween-80
[4] = endpoint: mean survival time, dose: 200.0 mg/kg/injection, schedule: Q04DX003 (ip), vehicle: saline with Tween-80
[5] = endpoint: mean survival time, dose: 400.0 mg/kg/injection, schedule: Q04DX003 (ip), vehicle: saline with Tween-80
[6] = endpoint: mean survival time, dose: 100.0 mg/kg/injection, schedule: Q01DX009 (ip), vehicle: saline with Tween-80
[7] = endpoint: mean survival time, dose: 200.0 mg/kg/injection, schedule: Q01DX009 (ip), vehicle: saline with Tween-80

With `CCCCOC(=O)c1ccc(NC(=O)Nc2cc([N+](=O)[O-])ccc2C)cc1` the T/C (endpoint: mean survival time, dose: 50.0 mg/kg/injection, schedule: Q01DX009 (ip), vehicle: Klucel (hydroxypropylcellulose) (HPC)) was 101 % of control, the T/C (endpoint: mean survival time, dose: 100.0 mg/kg/injection, schedule: Q01DX009 (ip), vehicle: Klucel (hydroxypropylcellulose) (HPC)) was 89 % of control and the T/C (endpoint: mean survival time, dose: 200.0 mg/kg/injection, schedule: Q01DX009 (ip), vehicle: Klucel (hydroxypropylcellulose) (HPC)) was 104 % of control.

In the case of `NC1(CO)COC(c2ccccc2)OC1` (stereo not drawn), the T/C (endpoint: mean survival time, dose: 25.0 mg/kg/injection, schedule: Q01DX009 (ip), vehicle: saline) is reported as 93 % of control, the T/C [1] is reported as 96 % of control and the T/C [2] is reported as 96 % of control.

For `CC(C)(C)C1=CC(=O)C(C(C)(C)C)=C(N=[N+]=[N-])C1=O`, the T/C (endpoint: mean survival time, dose: 100.0 mg/kg/injection, schedule: Q01DX001 (ip), vehicle: saline with Tween-80) was 101 % of control, the T/C (endpoint: mean survival time, dose: 200.0 mg/kg/injection, schedule: Q01DX001 (ip), vehicle: saline with Tween-80) was 97 % of control and the T/C (endpoint: mean survival time, dose: 400.0 mg/kg/injection, schedule: Q01DX001 (ip), vehicle: saline with Tween-80) was 97 % of control.

For `NCCCNc1ccc([N+](=O)[O-])cc1`, the T/C (endpoint: mean survival time, dose: 75.0 mg/kg/injection, schedule: Q01DX001 (ip), vehicle: saline) was 98 % of control, the T/C (endpoint: mean survival time, dose: 150.0 mg/kg/injection, schedule: Q01DX001 (ip), vehicle: saline) was 106 % of control and the T/C (endpoint: mean survival time, dose: 300.0 mg/kg/injection, schedule: Q01DX001 (ip), vehicle: saline) was 98 % of control.

For `CC(C)NC(=O)CCCn1c(=O)c2ccccc2c(=O)n1C`, the T/C (endpoint: mean survival time, dose: 25.0 mg/kg/injection, schedule: Q04DX003 (ip), vehicle: saline) was 104 % of control, the T/C (endpoint: mean survival time, dose: 50.0 mg/kg/injection, schedule: Q04DX003 (ip), vehicle: saline) was 96 % of control and the T/C (endpoint: mean survival time, dose: 100.0 mg/kg/injection, schedule: Q04DX003 (ip), vehicle: saline) was 101 % of control. For the same compound, the T/C (endpoint: mean survival time, dose: 200.0 mg/kg/injection, schedule: Q04DX003 (ip), vehicle: saline) was 96 % of control and the T/C (endpoint: mean survival time, dose: 400.0 mg/kg/injection, schedule: Q04DX003 (ip), vehicle: saline) was 98 % of control.

`NC(Cc1cc([N+](=O)[O-])ccc1CN(CCCl)CCCl)C(=O)O` (stereo not drawn) was tested, and the T/C (endpoint: mean survival time, dose: 0.25 mg/kg/injection, schedule: Q04DX003 (ip), vehicle: Klucel (hydroxypropylcellulose) (HPC)) was 109 % of control, the T/C (endpoint: mean survival time, dose: 0.5 mg/kg/injection, schedule: Q04DX003 (ip), vehicle: Klucel (hydroxypropylcellulose) (HPC)) was 111 % of control and the T/C (endpoint: mean survival time, dose: 0.75 mg/kg/injection, schedule: Q01DX001 (ip), vehicle: Klucel (hydroxypropylcellulose) (HPC)) was 103 % of control. For the same compound, the T/C (endpoint: mean survival time, dose: 1.0 mg/kg/injection, schedule: Q04DX003 (ip), vehicle: Klucel (hydroxypropylcellulose) (HPC)) was 115 % of control, the T/C (endpoint: mean survival time, dose: 1.5 mg/kg/injection, schedule: Q01DX001 (ip), vehicle: Klucel (hydroxypropylcellulose) (HPC)) was 114 % of control and the T/C (endpoint: mean survival time, dose: 3.0 mg/kg/injection, schedule: Q01DX001 (ip), vehicle: Klucel (hydroxypropylcellulose) (HPC)) was 123 % of control. For the same compound, the T/C (endpoint: mean survival time, dose: 4.0 mg/kg/injection, schedule: Q01DX009 (ip), vehicle: Klucel (hydroxypropylcellulose) (HPC)) was 158 % of control, the T/C (endpoint: mean survival time, dose: 8.0 mg/kg/injection, schedule: Q01DX009 (ip), vehicle: Klucel (hydroxypropylcellulose) (HPC)) was 123 % of control and the T/C (endpoint: median survival time, dose: 0.75 mg/kg/injection, schedule: Q01DX001 (ip), vehicle: Klucel (hydroxypropylcellulose) (HPC)) was 115 % of control. For the same compound, the T/C (endpoint: median survival time, dose: 1.5 mg/kg/injection, schedule: Q01DX001 (ip), vehicle: Klucel (hydroxypropylcellulose) (HPC)) was 111 % of control, the T/C (endpoint: median survival time, dose: 1.88 mg/kg/injection, schedule: Q04DX003 (ip), vehicle: Klucel (hydroxypropylcellulose) (HPC)) was 362 % of control and the T/C (endpoint: median survival time, dose: 3.0 mg/kg/injection, schedule: Q01DX001 (ip), vehicle: Klucel (hydroxypropylcellulose) (HPC)) was 119 % of control. The T/C (endpoint: median survival time, dose: 3.12 mg/kg/injection, schedule: Q01DX001 (ip), vehicle: Klucel (hydroxypropylcellulose) (HPC)) was 362 % of control, the T/C (endpoint: median survival time, dose: 6.25 mg/kg/injection, schedule: Q01DX001 (ip), vehicle: Klucel (hydroxypropylcellulose) (HPC)) was 114 % of control and the T/C (endpoint: median survival time, dose: 12.5 mg/kg/injection, schedule: Q01DX001 (ip), vehicle: Klucel (hydroxypropylcellulose) (HPC)) was 124 % of control. The T/C (endpoint: median survival time, dose: 25.0 mg/kg/injection, schedule: Q01DX001 (ip), vehicle: Klucel (hydroxypropylcellulose) (HPC)) was 121 % of control.

In the case of `OCCNC(=S)SCc1ccccc1`, the T/C [3] is reported as 94 % of control, the T/C [4] is reported as 100 % of control and the T/C [5] is reported as 98 % of control.

With `CCCCNCC(C)C(=O)OC` (stereo not drawn) the T/C [3] was 98 % of control, the T/C [4] was 98 % of control and the T/C [5] was 102 % of control.

In the case of `Cc1cc(C)c(C)c(C(C)O)c1C` (stereo not drawn), the T/C (endpoint: mean survival time, dose: 50.0 mg/kg/injection, schedule: Q01DX009 (ip), vehicle: saline with Tween-80) is reported as 100 % of control, the T/C [6] is reported as 100 % of control and the T/C [7] is reported as 97 % of control.

For `COC(=O)c1ccc(N2C(=O)C=CC2=O)cc1`, the T/C (endpoint: mean survival time, dose: 1.5 mg/kg/injection, schedule: Q01DX009 (ip), vehicle: saline with Tween-80) was 108 % of control and the T/C (endpoint: mean survival time, dose: 3.0 mg/kg/injection, schedule: Q01DX009 (ip), vehicle: saline with Tween-80) was 108 % of control.

For `Brc1c(Br)c(Br)c2n[nH]nc2c1Br`, the T/C [1] was 104 % of control, the T/C [2] was 104 % of control and the T/C (endpoint: mean survival time, dose: 200.0 mg/kg/injection, schedule: Q01DX009 (ip), vehicle: saline) was 108 % of control.

For `O=c1c(Cl)cc(Cl)cn1S(=O)(=O)c1ccc([N+](=O)[O-])cc1`, the T/C [6] was 100 % of control, the T/C [3] was 102 % of control and the T/C [7] was 102 % of control. For the same compound, the T/C [4] was 102 % of control, the T/C (endpoint: mean survival time, dose: 400.0 mg/kg/injection, schedule: Q01DX009 (ip), vehicle: saline with Tween-80) was 98 % of control and the T/C [5] was 101 % of control.
